The results in this text go back to patent US20190136188A1, “4HPR AND ITS USE IN THE CULTURING OF HEMATOPOIETIC STEM CELLS” (UNIVERSITY HEALTH NETWORK, priority 2016, published 2019).

For one experiment, the system named is sorted HSC, MPP or GMP. Nature of the experiment: Cell cycle analysis with Ki67 and Hoescht by flow cytometry. Format: cell-based, human. The note with it: 2 uM 4HPR, day 2 or day 3.
A further experiment has as its system CB stem and prog cells. In words: Flow cytometry for ROS (CELLROX), mitochondrial membrane potential (TMRE), mitochondrial mass (mitotracker green). Format: cell-based, human.
Experiment [1] relates to HSPC subpopulations including HSC, MPP and GMP. Nature of the experiment: BrdU incorporation (proliferation rate). As to conditions: 2 uM 4HPR, day 3 post-treatment. Format: cell-based, human.
For experiment [2], the system named is CD34+CD38- (stem) and CD34+CD38+ (prog) cells. Nature of the experiment: cyto-ID flow cytometry (autophagic flux). In kind it is cell-based, human. The note with it: day 2. As to the method:
(A) Representative mmunofluorescence images taken by confocal microscopy for DAPI (blue) and LC3II staining (green) for CD34+CD38− cells (stem) following 2 days of treatment with DMSO control or 2 uM 4HPR with and without the autophagy inhibitor baflomycin A1 (BAF) to assay for basal autophagy and autophagic flux. (B) Quantitation of LC3II foci area as a percentage of total cell area for stem and prog (CD34+38+) cells from three independent CB using R and Image J software. (C) LCII foci area is increased with 4HPR treatment relative to control in the presence of BAF only in stem populations and not Prog populations. (D) Representative flow cytometry histogram plot of cyto-ID fluorescence intensity of control (black) and 4HPR (green) treated stem cells to assay for autophagic flux. Lower mean fluorescence intensity (MFI) indicates more turnover of autophagosomes and thus increased autophagic flux. […] (F) Cytokine withdrawal for 3 hours activates autophagic flux in CB stem cells to similar levels as 2 uM 4HPR as assayed by cyto-ID flow cytometry at day 2 post-treatment (n=3).
(B). […] This difference in mitochondrial content is lost by day 3 post culture (See FIG. 3K).
We hypothesize that such selective enhancement of CFC cloning efficiency with 4HPR treatment is a result of activating autophagy in HSC in human CB. […]

Experiment [3] relates to ex vivo expanded human CB cells in NSG mice. Nature of the experiment: Primary xenotransplantation of ex vivo expanded CB cells, 16 weeks. The text has this: (A) Experimental scheme (B) Representative FACS analysis data of in vitro culture for 16 HSC dose time course (n=3). The number of (C) viable cells, (D) CD15+ myeloid cells, (E) GlyA+ erythroid cells, and (F) CD34+ primitive cells measured for the 16 LTRC dose with HTS flow cytometry analysis at day 8 post-treatment for vehicle control or 4HPR prior to xenotransplantation (n=5 biological replicates, 4 in technical triplicate, marked with different symbols). (G) Human CD45+ engraftment at 16 weeks post transplant in injected femur (n=4, 5 mice/biological experiment). Lineage analysis of control or 4HPR transplanted mice from FIG. 5G for (H) B lymphoid, (I) myeloid, (J) erythroid, and (K) primitive CD34+ at the 16 LTRC dose. (L) CD45+ cells were isolated from 5 biological experiments of the 16 LTRC dose primary mice and transplanted at limiting doses into secondary recipients for 16 weeks. Human CD45+ marking of >0.1% was considered positive for secondary engraftment. Limiting dilutation analysis was performed using ELDA software and the long-term repopulating cell (LTRC) frequency for each biological replicate plotted and the average LTRC frequency calculated.
All bones for each mouse were pooled following chimerism analysis and frozen for subsequent CD34 hierarchy analysis. Flow cytometry analysis were performed on CD34+ enriched cells using Miltenyl human CD34 enrichment protocol on thawed samples for the human CB hierarchy at the 16 HSC dose from 4 biological experiments, marked with different symbols (n=4 mice per biological experiment). The number of (B) CD34+CD19− cells, (C) CD34+CD38-, (D) CD34+CD38+, (E) HSC, (F) MPP, (G) MLP, and (I) GMP were quantitated from each mouse at 16 weeks post-transplant. Representative HSC hierarchy analysis scheme of CD34 enriched cells isolated from mice 16 weeks post-transplantation engrafted with ex vivo cultured CB cells in the presence of (J) vehicle control (black) or (K) 4HPR (green).
(A) The number of cells following 8 days of ex vivo culture at the 16 LTRC dose grown as in FIG. 5A for the indicated drug treatments (n=2). […] (2 biological replicates) (E) CD45+ cells were isolated from 2 biological experiments of the 16 LTRC dose primary mice and transplanted at limiting doses into secondary recipients for 16 weeks. […] Limiting dilutation analysis was performed using ELDA software and the long-term repopulating cell (LTRC) frequency for each biological replicate plotted and the average LTRC frequency calculated.
To determine if 4HPR preserves functional HSC in CB liquid culture, we devised an experimental protocol to test the effect of 4HPR treatment in short-term ex vivo expansion culture on repopulation in serial NSG xenotransplantation to functionally read out LT-HSC (FIG. 5A). […]

The mark [4] stands for this setting: stem and prog cells, day 2 and day 3.

With `CC1=C(/C=C/C(C)=C/C=C/C(C)=C/C(=O)Nc2ccc(O)cc2)C(C)(C)CCC1` [4HPR, N-(4hydroxyphenyl)retinamide], in the experiment on sorted HSC, MPP or GMP, the “cell cycle transit (Ki67 and Hoescht)” value was “no significant difference between ctrl and 4HPR”. Also, the mitochondrial mass result is given as “does decrease mitochondrial mass” in the experiment on CB stem and prog cells (progenitor cells, 2 days of treatment); “decreased” in the experiment on CB stem and prog cells (setting [4]); “without significantly altering mitochondrial mass in stem cells” with CB stem and prog cells (stem cells, 2 days of treatment); “decreases mitochondrial mass by day 3 post-treatment in stem cells” in the experiment on CB stem and prog cells (stem cells, D3 post-treatment). Also, the ROS result in the experiment on CB stem and prog cells (setting [4]) was “decreased”. Also, the mitochondrial membrane potential entry in the experiment on CB stem and prog cells (setting [4]) was “decreased”. For the same compound, the “proliferation rate by BrdU incorporation” value in experiment [1] is given as “decreased proliferation rate”. Moreover, the “autophagic flux by cyto-ID” value in experiment [2] (0.2 uM or 2 uM 4HPR vs vehicle, stem vs prog) is “only significantly induced in stem but not prog cells”. For the same compound, in experiment [2] (CB stem cells, 3 hour cytokine withdrawal), the “autophagy activated by cytokine withdrawal (cytoID)” value is “further enhanced in the presence of 4HPR”. The “lineage distribution for B lymphoid, myeloid and erythroid” value in experiment [3] (16 HSC dose, 16 weeks) is “comparable between ctrl and 4HPR transplanted cells”. Further, in experiment [3] (16 LTRC dose, 16 weeks), the “primitive lineage negative CD34+ cells in transplanted mice” value is reported as “equally prevalent”. For the same compound, the “human CD45 chimerism” value in experiment [3] (16 weeks post transplant, all cell doses) was “the same CD45 chimerism as vehicle control”. In experiment [3] (16 weeks post-transplant, control vs 4HPR expanded cells), the “HSPC populations of the HSC hierarchy in individual mice” value is recorded as “on average identical”.
